This note sets out measurements from patent US20200095236A1, “ANTIBACTERIAL COMPOUNDS” (FORGE THERAPEUTICS, INC., priority 2017, published 2020).

One assay concerns E. coli. In words: Bacterial susceptibility testing, MIC by broth microdilution (CLSI). Format: cell-based. As to conditions: Escherichia coli; broth microdilution, 35° C., 18-24 h; read-out: E. coli MIC. The method in brief: (§1)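 CLSI broth microdilution in cation-adjusted Mueller-Hinton broth with 2-fold serial drug dilutions; final inoculum 3×10^5–7×10^5 CFU/mL. Incubated 18-24 h at 35° C in ambient air; MIC is the lowest concentration preventing visible growth (OD600 nm<0.05).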
In general terms: Broth dilution looks for growth in wells or tubes with falling amounts of substance.

Another assay relates to K. pneumoniae. Described as above. Format: cell-based. As to conditions: Klebsiella pneumoniae; broth microdilution, 35° C., 18-24 h; read-out: K. pneumoniae MIC. The procedure, abridged:
as §1

In the next assay the test system is S. aureus. Described as above. Format: cell-based. As to conditions: Staphylococcus aureus; broth microdilution, 35° C., 18-24 h; read-out: S. aureus MIC. The procedure, abridged: as §1
The subject of assay [1] is TLR-4 activity of A. baumannii culture supernatants. As to the kind of experiment: TLR4 assay: TLR4 activity of A. baumannii culture supernatants in HEK-Blue-hTLR4 cells. Format: cell-based. As to conditions: Acinetobacter baumannii, HEK-Blue hTLR4, read-out: % TLR-4 activity. The method in brief:
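A. baumannii was grown to mid-log phase with LpxC inhibitors, and culture supernatants were filter-sterilized and diluted 1:1000. Supernatant TLR4 activity was measured in HEK-Blue-hTLR4 cells carrying an NF-kB/AP-1-driven SEAP reporter and reported as % TLR-4 activity.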

The next assay concerns the target E. coli LpxC (Escherichia coli, UniProt P0A725). In words: LpxC Binding Assay (Rapid Fire MS assay). Format: biochemical.

≈ marks a conversion by molar mass, not a printed value. Bounds are passed on as bounds.

E. coli LpxC, sequence (P0A725 whole entry): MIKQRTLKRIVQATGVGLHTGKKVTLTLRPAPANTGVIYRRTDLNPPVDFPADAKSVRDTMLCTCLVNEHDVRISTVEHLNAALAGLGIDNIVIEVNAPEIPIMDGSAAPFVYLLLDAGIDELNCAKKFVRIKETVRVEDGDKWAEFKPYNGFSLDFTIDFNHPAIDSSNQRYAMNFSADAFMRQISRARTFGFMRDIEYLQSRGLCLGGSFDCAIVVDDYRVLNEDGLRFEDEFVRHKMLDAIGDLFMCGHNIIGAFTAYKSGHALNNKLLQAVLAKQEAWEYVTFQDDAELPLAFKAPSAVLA

As to `O=C(NCCF)C(Cc1ccc(C#Cc2ccc(CN3CCOCC3)cc2)cc1)c1nc[nH]c(=O)c1O` (centres unmarked) [Compound 3, N-(2-fluoroethyl)-2-(5-hydroxy-6-oxo-1,6-dihydropyrimidin-4-yl)-3-(4-((4-(morpholinomethyl)phenyl)ethynyl)phenyl) propanamide], the MIC in the assay on E. coli is less than 1 µg/mL. Moreover, the MIC in the assay with K. pneumoniae was in the range of 1 to 8 µg/mL (≈ 1.98 to 15.9 µM). In the assay with S. aureus, the MIC was greater than 32 µg/mL. Also, in assay [1], the activity at 4 µg/mL was 50 to 80%, the activity at 8 µg/mL was 20 to 50% and the activity at 16 µg/mL lay within 20 to 50%. Further, the IC50 on E. coli LpxC fell in the range of 10 to 50 nM.

In the case of `O=C(NCC(Cc1ccc(C#Cc2ccc(CN3CCOCC3)cc2)cc1)c1nc[nH]c(=O)c1O)C(F)F` (centres unmarked) [Compound 15, 2,2-difluoro-N-(2-(5-hydroxy-6-oxo-1,6-dihydropyrimidin-4-yl)-3-(4-((4-(morpholinomethyl)phenyl)ethynyl)phenyl)propyl)acetamide], the MIC is less than 1 µg/mL in the assay on E. coli, 1 to 8 µg/mL (≈ 1.91 to 15.3 µM) in the assay with K. pneumoniae and greater than 32 µg/mL in the assay on S. aureus. The activity at 4 µg/mL in assay [1] was in the range of 50 to 80%. The activity at 8 µg/mL in assay [1] lay in the range of 50 to 80%. The activity at 16 µg/mL in assay [1] is less than 20%. The IC50 at E. coli LpxC lay within 10 to 50 nM.

By MIC is commonly meant the smallest concentration in the dilution series that meets the test's criterion for growth inhibition. As a reminder, the IC50 is the concentration that gives 50% inhibition. High values mean a need for much substance, low ones inhibition by little substance.
